Reference: patent publication US3995047A, “Propiophenone derivatives in the treatment of pathological muscular conditions” (Eisai Co., Ltd., priority 1973, dated 1976)

Key:
in vivo = test: in vivo; set-up: species or system male d,d-strain mice; conditions: mouse, po
Protocol: (§1) Male d,d-strain mice weighing 18 to 22 grs. were used for the experiments.
(§2) Groups of each 10 mice were treated orally and intraperitoneally with a wide range of doses of the above-mentioned compounds or saline.

[1] = system: physostigmine-induced convulsive death; test: Anti-physostigmine activity: antagonism of convulsive death caused by physostigmine; assay type: in vivo, male d,d-strain mice; conditions: Mus musculus, 1 h; oral, mice, 60 minutes after administration; footnote 1) for control: no effect up to the dose
Protocol: as §1, §2
(§3) 2) Anti-nicotine and anti-physostigmine activities:
(§4) Antagonistic effects against the convulsive death of the mice caused by the injections of nicotine, on one hand, and physostigmine, on the other hand, were observed as follows:
(§5) Thirty (30) minutes after the intraperitoneal injection of the individual compounds under test, on one hand, and 60 minutes after the oral administration of said individual compounds, on the other hand, 4 mg/kg of nicotine tartrate, on one hand, and 0.5 mg/kg of physostigmine sulfate, on the other hand, were intravenously injected to each group of the mice. The convulsive death, if any, of the mice in each group was then observed.

[2] = system: isolated smooth muscle preparations (acetylcholine); test: Anti-acetylcholine activity on isolated smooth muscle preparations; conditions: A at 4 × 10^-6, B at 10^-6, C at 4 × 10^-7 g/ml
Excerpt: (§6) Additionally, anti-histamine, anti-acetylcholine, antiserotonin and smooth muscle-relaxing activities of the compounds under test were examined on isolated smooth muscle preparations.

[3] = Acute toxicity: mortality during 24 hours after oral administration; assay type: in vivo; conditions: mouse, in vivo, mice, mortality during 24 hours
Protocol: as §1, §2
(§7) The mortality ensued during 24 hours after the oral administration was recorded to determine acute toxicity of the compound under test on the mice.

mice = test: as above; assay type: in vivo; conditions: 24 hours
Protocol: as §1, §2, §7

[4] = system: nicotine-induced convulsive death; test: Anti-nicotine activity: antagonism of convulsive death caused by nicotine; assay type: in vivo, male d,d-strain mice; conditions: Mus musculus, mice
Protocol: as §1, §2, §3, §4, §5

[5] = system: isolated smooth muscle preparations; test: Smooth muscle-relaxing activity on isolated smooth muscle preparations; conditions: for smooth muscle-relaxant activity (in words): A at 4 × 10^-6, B at 10^-6, C at 4 × 10^-7 g/ml, concentration for control not stated
Excerpt: as §6

tremorine-induced tremor = test: Anti-tremorine activity: antagonism of tremorine-induced tremor; assay type: in vivo, male d,d-strain mice; conditions: Mus musculus, mice
Protocol: as §1, §2
1) Anti-tremorine activity:
Antagonistic effects on the tremorine-induced tremor were observed as follows:
Ten (10) minutes after the intraperitoneal injection of the individual compounds under test, on one hand, and 40 minutes after the oral administration of said individual compounds, on the other hand, 20 mg/kg of tremorine hydrochloride were subcutaneously injected to each group of the mice. The occurrence of tremor on the individually caged mice was visually observed 20 minutes after the tremorineinjection.

[6] = system: isolated smooth muscle preparations (histamine); test: Anti-histamine activity on isolated smooth muscle preparations; conditions: A at 4 × 10^-6, B at 10^-6, C at 4 × 10^-7 g/ml
Excerpt: as §6

[7] = 1 h, oral, 60 minutes after administration
[8] = ip, 0.5 h, intraperitoneal, 30 minutes after injection

**Q.** Which TD50 at 1 h (in vivo) does the source give for `CCc1ccc(C(=O)C(C)CN2CCCCC2)cc1.Cl` (centres unmarked) [Compound A, 4'-ethyl-2-methyl-3-piperidino-propiophenone hydrochloride] here?
**A.** 640 mg/kg

**Q.** And the ED50 [1]?
**A.** 84 mg/kg

**Q.** What about the “anti-acetylcholine activity (in words)” value [2] of the same compound?
**A.** do not entirely produce

**Q.** And the LD50 at 24 h [3]?
**A.** 800 to 1000 mg/kg

**Q.** What about the “acute toxicity compared with Compound under control (in words)” value (mice) of the same compound?
**A.** slighly stronger

**Q.** And the ED50 [4, 7]?
**A.** 175 mg/kg

**Q.** What about the ED50 [4, 8] of the same compound?
**A.** 21 mg/kg

**Q.** What about the “smooth muscle-relaxant activity (in words)” value [5] of the same compound?
**A.** strong smooth muscle-relaxant activities

**Q.** What about the ED50 (tremorine-induced tremor; [7]) of the same compound?
**A.** 32 mg/kg

**Q.** What about the ED50 (tremorine-induced tremor; [8]) of the same compound?
**A.** 23 mg/kg

**Q.** And the “anti-histamine activity (in words)” value [6]?
**A.** do not entirely produce

**Q.** What does the source list for `CCCc1ccc(C(=O)C(C)CN2CCCCC2)cc1.Cl` (centres unmarked) [Compound B, 4'-n-propyl-2-methyl-3-piperidino-propiophenone hydrochloride]?
**A.** TD50 at 1 h (in vivo): 800 mg/kg; ED50 [1]: 150 mg/kg; anti-acetylcholine activity (in words) [2]: do not entirely produce; LD50 at 24 h [3]: 1000 to 1500 mg/kg; acute toxicity compared with Compound under control (in words) (mice): almost equivalent to that of Compound under control; ED50 [4, 7]: 135 mg/kg; ED50 [4, 8]: 20 mg/kg; smooth muscle-relaxant activity (in words) [5]: strong smooth muscle-relaxant activities; ED50 (tremorine-induced tremor; [7]): 50 mg/kg; ED50 (tremorine-induced tremor; [8]): 21 mg/kg; anti-histamine activity (in words) [6]: do not entirely produce

**Q.** For `CC(CN1CCCCC1)C(=O)c1ccc(C(C)C)cc1.Cl` (centres unmarked) [Compound C, 4'-isopropyl-2-methyl-3-piperidino-propiophenone hydrochloride], which TD50 at 1 h (in vivo) is on record?
**A.** 84 mg/kg

**Q.** What about the ED50 [1] of the same compound?
**A.** 50 mg/kg

**Q.** And the “anti-acetylcholine activity (in words)” value [2]?
**A.** do not entirely produce

**Q.** And the LD50 at 24 h [3]?
**A.** 400 to 500 mg/kg

**Q.** And the ED50 [4, 7]?
**A.** 37 mg/kg

**Q.** What about the ED50 [4, 8] of the same compound?
**A.** 10 mg/kg

**Q.** What about the “smooth muscle-relaxant activity (in words)” value [5] of the same compound?
**A.** strong smooth muscle-relaxant activities

**Q.** And the ED50 (tremorine-induced tremor; [7])?
**A.** 118 mg/kg

**Q.** And the ED50 (tremorine-induced tremor; [8])?
**A.** 25 mg/kg

**Q.** And the “anti-histamine activity (in words)” value [6]?
**A.** do not entirely produce

**Q.** Which TD50 at 1 h (in vivo) does the source give for `Cc1ccc(C(=O)C(C)CN2CCCCC2)cc1.Cl` (centres unmarked) [Compound for Control, 2,4'-dimethyl-3-piperidino-propiophenone hydrochloride, reference compound] here?
**A.** 800 mg/kg

**Q.** And the ED50 [1]?
**A.** > 400 mg/kg

**Q.** What about the LD50 at 24 h [3] of the same compound?
**A.** 1000 to 1500 mg/kg

**Q.** And the ED50 [4, 7]?
**A.** 450 mg/kg

**Q.** And the ED50 [4, 8]?
**A.** 35 mg/kg

**Q.** What about the “smooth muscle-relaxant activity (in words)” value [5] of the same compound?
**A.** weak smooth muscle-relaxant activity

**Q.** What about the “smooth muscle-relaxant potency relative to papaverine” value ([5]; Compound under control vs papaverine) of the same compound?
**A.** about 1/3

**Q.** And the ED50 (tremorine-induced tremor; [7])?
**A.** 210 mg/kg

**Q.** What about the ED50 (tremorine-induced tremor; [8]) of the same compound?
**A.** 80 mg/kg
